ChEMBL document CHEMBL6114969, “Ultra-short lipopeptides containing d-amino acid exhibiting excellent stability and antibacterial activity against gram-positive bacteria” (Eur J Med Chem, 2025)
In brackets after ≈: the same amount, converted by molar mass. Activity calls are given as the source filed them. The rule behind the calls is not given here.

Key:
[1] = Toxicity in Balb/c mouse assessed as change in lung co-efficient at 20 to 80 mg/kg, ip measured after 7 days; assay type: organism-based; conditions: in vivo, 168 h, dose 20-80 mg/kg, time 7 day
Staphylococcus aureus [2] = assay: Antibacterial activity against methicillin-resistant Staphylococcus aureus ATCC 33591 assessed as fold change in MIC incubated for 18 to 24 hrs in presence of 10 percent FBS by broth microdilution method; assay type: functional; conditions: time 18-24 hrs
Staphylococcus aureus [3] = assay: Synergistic antibacterial activity against methicillin-resistant Staphylococcus aureus ATCC 33591 assessed as fractional inhibitory concentration index upto 2 times MIC incubated for 18 to 24 hrs in presence of gentamicin by checkerboard assay; assay type: functional; conditions: time 18-24 hrs
Staphylococcus aureus [4] = assay: (§1) Antibacterial activity against methicillin-resistant Staphylococcus aureus ATCC 33591 infected in Balb/c mouse model of skin wound infection assessed as reduction in IL-1beta activity in skin at 10 mg/kg, ip administered thrice at 1, 24 and 48 hrs post-infection measured after 14 days in presence of polymyxin B by IHC analysis; assay type: functional, organism-based; conditions: time 14.0 day
Staphylococcus aureus [5] = assay: Antibacterial activity against methicillin-resistant Staphylococcus aureus ATCC 33591 incubated for 18 to 24 hrs by broth microdilution method; assay type: functional; conditions: time 18-24 hrs
Staphylococcus aureus [6] = assay: Inhibition of imipenem-induced drug resistance in […] Staphylococcus aureus ATCC 33591 at sub-MIC measured upto 15 passages; assay type: functional, organism-based
Staphylococcus aureus [7] = assay: Antibacterial activity against methicillin-resistant Staphylococcus aureus ATCC 33591 assessed as fold change in MIC incubated for 18 to 24 hrs in presence of MgCl2 by broth microdilution method; assay type: functional; conditions: time 18-24 hrs
Staphylococcus aureus [8] = assay: Antibacterial activity against methicillin-resistant Staphylococcus aureus ATCC 33591 infected in Balb/c mouse model of pneumonia infection assessed as reduction in TNF-alpha activity in lung at 10 mg/kg, ip administered thrice at 4, 8 and 12 hrs post-infection measured after 24 hrs post-infection by IHC analysis; assay type: functional, organism-based; conditions: time 20.0 hrs
Staphylococcus aureus [9] = assay: Antibacterial activity against methicillin-resistant Staphylococcus aureus ATCC 33591 incubated for 18 to 24 hrs in presence of 0.5 mg/ml of pepsin by broth microdilution method; assay type: functional; conditions: time 18-24 hrs
[10] = Retention time of compound by RP-HPLC analysis; assay type: physicochemical
Staphylococcus aureus [11] = assay: Antibacterial activity against methicillin-resistant Staphylococcus aureus ATCC 33591 assessed as fold change in MIC incubated for 18 to 24 hrs in presence of 10 percent mouse serum by broth microdilution method; assay type: functional; conditions: time 18-24 hrs
Staphylococcus aureus [12] = assay: Antibacterial activity against drug-resistant methicillin-resistant Staphylococcus aureus ATCC 33591 incubated for 18 to 24 hrs; assay type: functional; conditions: time 18-24 hrs
[13] = Toxicity in Balb/c mouse assessed as kidney pigmentation at 80 mg/kg, ip measured after 7 days; assay type: organism-based; conditions: in vivo, 168 h, time 7 day
Staphylococcus aureus [14] = assay: Antibacterial activity against methicillin-resistant Staphylococcus aureus ATCC 33591 infected in Balb/c mouse model of acute systemic infection assessed as reduction in follicular structure loss in spleen at 10 mg/kg, ip measured after 5 days by H and E staining based analysis; assay type: functional, organism-based; conditions: time 5.0 day
[15] = Toxicity in Balb/c mouse assessed as survival rate at 20 to 40 mg/kg, ip measured after 7 days; assay type: organism-based; conditions: in vivo, dose 20-40 mg/kg, time 7 day
[16] = Toxicity in Balb/c mouse assessed as cell swelling in lung at 80 mg/kg, ip measured after 7 days by H and E staining based analysis; assay type: organism-based; conditions: in vivo, 168 h, time 7 day
Staphylococcus aureus [17] = assay: Antibacterial activity against methicillin-resistant Staphylococcus aureus ATCC 33591 infected in Balb/c mouse model of acute systemic infection assessed as reduction in cell swelling in heart at 10 mg/kg, ip measured after 5 days by H and E staining based analysis; assay type: functional, organism-based; conditions: time 5.0 day
Staphylococcus aureus [18] = assay: Antibacterial activity against methicillin-resistant Staphylococcus aureus ATCC 33591 infected in Balb/c mouse model of acute systemic infection assessed as reduction in alveolar contraction in lung at 10 mg/kg, ip measured after 5 days by H and E staining based analysis; assay type: functional, organism-based; conditions: time 5.0 day
Staphylococcus aureus [19] = assay: Antibacterial activity against methicillin-resistant Staphylococcus aureus ATCC 33591 infected in Balb/c mouse model of acute systemic infection assessed as reduction in bacterial count in lung at 10 mg/kg, ip measured after 5 days; assay type: functional, organism-based; conditions: time 5.0 day
Staphylococcus aureus [20] = assay: Antibacterial activity against methicillin-resistant Staphylococcus aureus ATCC 33591 infected in Balb/c mouse model of skin wound infection assessed as reduction in bacterial load in skin at 10 mg/kg, ip administered thrice at 1, 24 and 48 hrs post-infection measured after 72 hrs post-infection; assay type: functional, organism-based; conditions: time 71.0 hrs
Staphylococcus aureus [21] = assay: Antibacterial activity against methicillin-resistant Staphylococcus aureus ATCC 33591 infected in Balb/c mouse model of acute systemic infection assessed as reduction in inflammatory cell infiltration in lung at 10 mg/kg, ip measured after 5 days by H and E staining based analysis; assay type: functional, organism-based; conditions: time 5.0 day
Staphylococcus aureus [22] = assay: Synergistic bactericidal activity against persistent methicillin-resistant Staphylococcus aureus ATCC 33591 at high concentration incubated for 18 to 24 hrs in presence of gentamycin by time-kill assay; assay type: functional, organism-based; conditions: time 18-24 hrs
Staphylococcus aureus [23] = assay: Antibacterial activity against methicillin-resistant Staphylococcus aureus ATCC 33591 infected in Balb/c mouse model of pneumonia infection assessed as reduction in bacterial load in lung at 10 mg/kg, ip administered thrice at 4, 8 and 12 hrs post-infection measured after 24 hrs post-infection; assay type: functional, organism-based; conditions: time 20.0 hrs
Staphylococcus aureus [24] = assay: Antibacterial activity against methicillin-resistant Staphylococcus aureus ATCC 33591 incubated for 18 to 24 hrs in presence of 0.5 mg/ml of chymotrypsin by broth microdilution method; assay type: functional; conditions: time 18-24 hrs
Staphylococcus aureus [25] = assay: Induction of morphological changes in methicillin-resistant Staphylococcus aureus ATCC 33591 assessed as content leakage at 4 times MIC incubated for 2 hrs by SEM analysis; assay type: functional, organism-based
Staphylococcus aureus [26] = assay: Synergistic bactericidal activity against persistent methicillin-resistant Staphylococcus aureus ATCC 33591 incubated for 18 to 24 hrs in presence of ciprofloxacin by time-kill assay; assay type: functional, organism-based; conditions: time 18-24 hrs
[27] = Toxicity in Balb/c mouse assessed as inflammatory cell infiltration in kidney at 80 mg/kg, ip measured after 7 days by H and E staining based analysis; assay type: organism-based; conditions: in vivo, 168 h, time 7 day
[28] = Stability in mouse serum assessed as half life measured upto 96 hrs by RP-HPLC analysis; assay type: ADME, cell-free
Staphylococcus aureus [29] = assay: as §1, with “in keratosis” for “in IL-1beta activity”, “in wound surface” for “in skin”; assay type: functional, organism-based; conditions: time 14.0 day
Staphylococcus aureus [30] = assay: Antibacterial activity against methicillin-resistant Staphylococcus aureus ATCC 33591 infected in Balb/c mouse model of acute systemic infection assessed as reduction in hemorrhage in lung at 10 mg/kg, ip measured after 5 days by H and E staining based analysis; assay type: functional, organism-based; conditions: time 5.0 day

CCCCCCCCCCCC(=O)N[C@H](CCCNC(=N)N)C(=O)N[C@H](CCCNC(=N)N)C(=O)N[C@H](Cc1c[nH]c2ccccc12)C(=O)O
Activity [1]: Non-toxic | fold change (FC) (Staphylococcus aureus [2]): 8 | fractional inhibitory concentration index (FICI) (Staphylococcus aureus [3]): 0.125 | Activity (Staphylococcus aureus [4]): Active | MIC (Staphylococcus aureus [5]): 4 µM (≈ 2.8 µg/mL) | inhibition (Staphylococcus aureus [6]): Active | fold change (FC) (Staphylococcus aureus [7]): <3 | Activity (Staphylococcus aureus [8]): Active | MIC (Staphylococcus aureus [9]): 8 µM | Retention_time [10]: 17.826 min | fold change (FC) (Staphylococcus aureus [11]): 8 | MIC (Staphylococcus aureus [12]): 8 µM (≈ 5.59 µg/mL) | Activity [13]: Toxic | Activity (Staphylococcus aureus [14]): Active | survival at 168 h [15]: 100% | Activity [16]: Toxic | Activity (Staphylococcus aureus [17]): Active | Activity (Staphylococcus aureus [18]): Active | Activity (Staphylococcus aureus [19]): Active | Activity (Staphylococcus aureus [20]): Active | Activity (Staphylococcus aureus [21]): Active | Activity (Staphylococcus aureus [22]): Active | Activity (Staphylococcus aureus [23]): Active | MIC (Staphylococcus aureus [24]): 4 µM | Activity (Staphylococcus aureus [25]): Active | Activity (Staphylococcus aureus [26]): Dose-dependent-effect | Activity [27]: Toxic | half-life [28]: > 48 h | Activity (Staphylococcus aureus [29]): Active | Activity (Staphylococcus aureus [30]): Active
